Consider three compounds from patent US20190298846A1, “CELL TARGETING CONJUGATES” (LinXis B.V., priority 2016, published 2019).

Square brackets hold non-standard residues; d marks the D form. Peptide text beside a SMILES is read from it. * marks the point of attachment. Dolaproine = CO[C@@H]([C@@H]1CCCN1)[C@@H](C)C(=O)O; Dil = CC[C@H](C)[C@H](NC)[C@@H](CC(=O)O)OC; X1 = O=C(CCCCCN1C(=O)C=CC1=O)NCCOCCOCCN*; NMe2Val = CC(C)[C@@H](C(=O)*)N(C)C

The subject of one assay is all tested cell lines. Kind of assay: In vitro cell viability assay, drug-linkers versus ADCs. It is filed as cell-based. The note with it: AF-Lx quenched with thiourea, AF-Mal with n-acetyl-cysteine. On the procedure:
(§1) Before starting the assay, the AF-Lx and AF-Mal were quenched by incubation the compounds with 1 mol equiv. thiourea (2 hours, 37° C.) and n-acetyl-cysteine (30 minutes, 0° C.), respectively. The cells were trypsinized and plated in 96-well, flat-bottomed, tissue culture plates at day 0. On day 1, from the above mentioned compounds serial dilution series (9×4-fold dilutions) were made starting from 10 or 1000 nM (depending on type of cells and compounds) and added to the cells (in case of ADCs, concentration of the mAb was used). On day 5, the […] BLUE® reagent was added and incubated for 2 hours at 37° C., and viable cells were measured with a TeCan plate reader (Tecan Group Ltd.) at 560EX/590EM nm. Fluorescence values of the samples were corrected for background of cell culture medium, the results, presented as the percentage of survival, were calculated by dividing the fluorescence values of the treated cells by the values of the untreated control cells. The data were analyzed with Graphpad Prism 5 software.

A further assay relates to JIMT-1 tumors. Kind of assay: In vivo therapy study, JIMT-1 xenografts. The arrangement: species or system nude mice. The note with it: single bolus injection (15 mg/kg; AF conjugates 15 and 30 mg/kg), follow-up to day 125. On the procedure: (§2) Body weight was measured three times per week and MTD was reached when weight loss was >10% compared with the control mice. […] For this purpose, seven groups of 8 or 9 mice with established NCI-N87 or JIMT-1 xenografts in both flanks were used. […] All mice received an i.p. bolus injection. In the study with the NCI-N87 tumors, Group 1 was the control group and received 100 μL of saline solution. […] In the study with the JIMT-1 tumors, Group 1 was the control group and received 100 μL of saline solution. […] Body weight and tumor volume were measured three times per week up to 4 months after end of treatment.

The test system of the next assay is JIMT-1. Kind of assay: In vitro cell viability assay ([…] BLUE). The assay is classed as cell-based. As to the method: as §1, with “BLUE® Assay (Promega). Before” for “Before”, “Fluorescence values of the samples were corrected for background of cell culture medium, the results, presented as the percentage of survival, were calculated by dividing the fluorescence values of the treated cells by the values of the untreated control cells.” left out

The test system of a further assay is NCI-N87. Description: In vitro cell viability assay ([…] BLUE). The assay is classed as cell-based. The note with it: concentration of the mAb for ADCs, day 5 readout. As to the method: as §1, with “BLUE® Assay (Promega). Before” for “Before”, “Fluorescence values of the samples were corrected for background of cell culture medium, the results, presented as the percentage of survival, were calculated by dividing the fluorescence values of the treated cells by the values of the untreated control cells.” left out

The subject of a further assay is MDA-MB-231. Description: In vitro cell viability assay ([…] BLUE). The assay is classed as cell-based. On the procedure:
as §1, with “BLUE® Assay (Promega). Before” for “Before”, “Fluorescence values of the samples were corrected for background of cell culture medium, the results, presented as the percentage of survival, were calculated by dividing the fluorescence values of the treated cells by the values of the untreated control cells.” left out

The test system of another assay is SKOV-3. Description: In vitro cell viability assay ([…] BLUE). It is filed as cell-based. On the procedure: as §1, with “BLUE® Assay (Promega). Before” for “Before”, “Fluorescence values of the samples were corrected for background of cell culture medium, the results, presented as the percentage of survival, were calculated by dividing the fluorescence values of the treated cells by the values of the untreated control cells.” left out

Another assay deals with SK-BR-3. Description: In vitro cell viability assay ([…] BLUE). The assay is classed as cell-based. On the procedure: as §1, with “BLUE® Assay (Promega). Before” for “Before”, “Fluorescence values of the samples were corrected for background of cell culture medium, the results, presented as the percentage of survival, were calculated by dividing the fluorescence values of the treated cells by the values of the untreated control cells.” left out

The next assay relates to NCI-N87 tumors. Description: In vivo therapy study, NCI-N87 xenografts. The note with it: single bolus injection 15 mg/kg. The arrangement: species or system nude mice. As to the method:
as §2

For “[Pt(en)(AF-(4-(12-amino-3-oxo-7,10-dioxa-2,4-diazadodecyl)piperidine))Cl](Cl) [AF-Lx]”, in the assay on all tested cell lines, the “potency of drug-linker lower compared to its corresponding ADC” value is recorded as 10^3-10^4 fold.
ado-trastuzumab emtansine [T-DM1]: in the assay with JIMT-1 tumors, the “tumor growth response, in words” value is “minimal growth delay”. For the same compound, the IC50 (usually the midpoint of a concentration-inhibition curve) was 7 nM in the assay with JIMT-1 (JIMT-1, T-DM1-resistant); 0.105 nM in the assay on NCI-N87; 200 nM with MDA-MB-231 (MDA-MB-231, HER2-negative); 0.013 nM with SKOV-3; 0.021 nM in the assay with SK-BR-3. Besides, in the assay on JIMT-1 (T-DM1-resistant JIMT-1), the “potency / IC50 in JIMT-1 cell line, in words” value is listed as “an order of magnitude higher”. Also, the “potency / IC50 in MDA-MB-231, in words” value in the assay on MDA-MB-231 (HER2-negative MDA-MB-231) is “lower IC50”. Also, the “time at which tumors started regrowth” value in the assay on NCI-N87 tumors came to 20 days.
As for `CC[C@H](C)[C@@H]([C@@H](CC(=O)N1CCC[C@H]1[C@H](OC)[C@@H](C)C(=O)N[C@H](Cc1ccccc1)C(=O)NCCOCCOCCNC(=O)CCCCCN1C(=O)C=CC1=O)OC)N(C)C(=O)[C@@H](NC(=O)[C@H](C(C)C)N(C)C)C(C)C` [AF-Mal, AF-PEG1-amide-Hex-Mal] (NMe2Val-V[Dil][Dolaproine][dF]-X1), the “potency of drug-linker lower compared to its corresponding ADC” value in the assay with all tested cell lines is 10 fold.
